The values below come from patent US20100104664A1, “TREATMENT OF CHRONIC RENAL FAILURE AND OTHER CONDITIONS IN DOMESTIC ANIMALS: COMPOSITIONS AND METHODS” (priority 2005, published 2010).

Data set [1] relates to Sprague-Dawley rats with 5/6th nephrectomy. In words: In vivo study in 5/6th nephrectomy rats, urine phosphorus excretion. The following applies: 314 mg elemental lanthanum/kg/day, oral lavage once daily for 14 days; compared to untreated rats. Also noted: species or system rat. As to the method:
Groups of six adult Sprague-Dawley rats underwent ⅚th nephrectomy in two stages over a period of 2 weeks and were then allowed to recover for a further two weeks prior to being randomized for treatment. The groups received vehicle (0.5% w/v carboxymethyl cellulose), or lanthanum oxycarbonate suspended in vehicle, once daily for 14 days by oral […] (10 ml/kg/day). The dose delivered 314 mg elemental lanthanum/kg/day. Dosing was carried out immediately before the dark (feeding) cycle on each day. Urine samples (24 hours) were collected prior to surgery, prior to the commencement of treatment, and twice weekly during the treatment period. Volume and phosphorus concentration were measured.
Feeding—During the acclimatization and surgery period, the animals were given Teklad phosphate sufficient diet (0.5% Ca, 0.3% P; Teklad No. TD85343), ad libitum. At the beginning of the treatment period, animals were pair fed based upon the average food consumption of the vehicle-treated animals the previous week.
⅚ Nephrectomy—After one week of acclimatization, all animals were subjected to ⅚ nephrectomy surgery. The surgery was performed in two stages. First, the two lower branches of the left renal artery were ligated. One week later, a right nephrectomy was performed. […]

A short description of data set [2]: physical and chemical properties of the phosphate binder. In kind it is physicochemical. From the text: The combination compositions of the present invention are benefited by the physical and chemical properties of the phosphate binders.
The test system of a further data set is dogs. In words: Palatability study in dogs. Format: in vivo, dog. Particulars: during hours post meal, 9 dogs. The source says: Lanthanum oxycarbonate was mixed with wet and dry dog food and presented to 9 different dogs, almost all over 40 pounds.
Another data set concerns adult beagle dogs. In words: Dog study, urine phosphate excretion. Format: in vivo. The following applies: 2250 mg elemental lanthanum twice daily, oral capsules, cross-over; urine approximately 24 hours after dosing. Here is the method: Six adult beagle dogs were dosed orally with capsules of lanthanum oxycarbonate LaCO3OH (compound A) or La2O2CO3 (compound B) in a cross-over design using a dose of 2250 mg elemental lanthanum twice daily (6 hours apart). The doses were administered 30 minutes after provision of food to the animals. At least 14 days washout was allowed between the crossover arms. Plasma was obtained pre-dose and 1.5, 3, 6, 7.5, 9, 12, 24, 36, 48, 60, and 72 hours after dosing and analyzed for lanthanum using ICP-MS. Urine was collected by catheterization before and approximately 24 hours after dosing and creatinine and phosphorus concentrations measured.

For `O=C([O-])[O-].[La+3].[OH-]` [lanthanum carbonate hydroxide], the “phosphorus excretion (urine), a marker of dietary phosphorus binding” value in data set [1] is “decrease in phosphorus excretion”.
For lanthanum oxycarbonate, the “stability at high temperatures” value in data set [2] was “stable at high temperatures”. In addition, in data set [2] (pH above 2.0), the “solubility in aqueous media” value is reported as “sparingly soluble”. The “phosphorus excretion (urine), a marker of dietary phosphorus binding” value in data set [1] is given as “decrease in phosphorus excretion”. In addition, the “signs of nausea, vomiting, bloating or flatus” value in the data set on dogs is recorded as “None of the dogs exhibited signs of nausea, vomiting, bloating or flatus”.
As for `O=C([O-])[O-].[La+3].[La+3].[O-2].[O-2]` [compound B, La2O2CO3], in the data set with adult beagle dogs, the “urine phosphate excretion, a marker of phosphorous binding” value is recorded as “reduction of urine phosphate excretion”.
Turning to `O=C([O-])[O-].[La+3].[OH-]` [compound A, LaCO3OH], in the data set on adult beagle dogs, the “urine phosphate excretion, a marker of phosphorous binding” value was “reduction of urine phosphate excretion”.
